Test [1] relates to neuromuscular block in a patient. The following applies: endotracheal intubation; cited from earlier work.
Test [2] has as its system M. adductor pollicis contractions. As to the kind of experiment: Vecuronium-induced block of M. adductor pollicis contractions (TOF stimulation) and effect of Org 25969 in anaesthetised Rhesus monkeys. Type of test: in vivo, Rhesus monkey. The following applies: for 0.50-0.90 TOF ratio interval / 25-75% recovery index / time to 25% recovery of T1 / time to 90% recovery of T1 / time to TOF ratio 0.90: spontaneous recovery. Here is the method:
• T1: first twitch: amplitude of the first response to TOF stimulation, expressed as percentage of control T1 (%). • T4/T1 ratio: the ratio of T4 over T1 (within one TOF stimulus) expressed as decimals.
Female Rhesus monkeys were starved overnight and sedated with 10 mg·kg^−1 ketamine i.m., followed by i.v. injection of 25 mg·kg^−1 pentobarbitone sodium and subsequent infusion of 5-10 mg·kg^−1hr^−1. The animals were intubated and ventilated with a mixture of oxygen and nitrous oxide (2:3), using a ventilator. The expired CO2 level was measured using a capnograph. The tidal volume was adjusted to obtain a CO2 level of approximately 4.5%. Oxygen saturation was measured via a probe on the earlobe using a pulse oxymeter. Blood pressure was measured non-invasively with a cuff placed on the tail. The ECG was recorded and heart rate was measured. Rectal temperature was measured and body temperature was kept at 37-38° C. using a heating blanket. The right hand and right arm of the animal were fixed to a frame using surgical tape. The thumb was connected to a force transducer. A pre-load of 200-500 mN was applied. Two needle electrode were placed near the N. ulnaris and the nerve was stimulated with train-of-four pulses (pulse duration: 2 ms, train-frequency: 0.07 Hz). At the end of the experiment, the animals were allowed to recover from anesthesia. Appropriate recovery care was given to all animals. Two groups of monkeys were used to assess the reversal effects of Org 25969 against the neuromuscular blocking agents rocuronium (Esmeron®/Zemuron®) and vecuronium (Norcuron®). In the first group, animals initially received an intravenous bolus injection of a 1×ED90 dose of rocuronium bromide to induce neuromuscular block, followed by spontaneous recovery of the twitches. After complete recovery of the twitches, each group received a second and larger 5×ED90 dose of rocuronium followed by spontaneous recovery in one subgroup, whereas the other subgroup received an intravenous bolus dose of 1150 nmol·kg^−1 Org 25969 as soon as all twitches had disappeared. In the vecuronium groups of animals, the same protocol was used, but rocuronium was replaced by vecuronium. Rocuronium bromide and vecuronium bromide were dissolved in a citric acid/phosphate/mannitol buffer (pH 4.0). Org 25969 was dissolved in saline.

Setting [3] is: 5× ED90 vecuronium, spontaneous recovery subgroup.

The structures appear in SMILES notation.

Turning to `C[N+](C)(C)CCOC(=O)CCC(=O)OCC[N+](C)(C)C` [suxamethonium], in test [1], the duration of action was 5 to 8 min and the onset was roughly 1 min.
Turning to `CC(=O)O[C@H]1C[C@@H]2CC[C@@H]3[C@H](CC[C@@]4(C)[C@H]3C[C@H]([N+]3(C)CCCCC3)[C@@H]4OC(C)=O)[C@@]2(C)C[C@@H]1N1CCCCC1` [vecuronium, vecuronium bromide], in test [2] (1× ED90 vecuronium), the onset time is 4.3 ± 0.6 min, the “0.50-0.90 TOF ratio interval” value is 4.9 ± 0.5 min, the 25-75% recovery index turned out to be 5.4 ± 0.8 min and the “time to 25% recovery of T1” value came out at 8.6 ± 1.0 min. In test [2] (1× ED90 vecuronium), the “time to 90% recovery of T1” value is 18.1 ± 1.9 min and the “time to TOF ratio 0.90” value worked out at 17.2 ± 1.6 min. For the same compound, the block in test [2] (1× ED90 vecuronium, Mean ± SEM, n = 4) came out at 91.5 ± 1.7%. Further, in test [2] (5× ED90 vecuronium), the “0.50-0.90 TOF ratio interval” value is listed as 11.8 ± 1.3 min, the 25-75% recovery index came out at 9.6 ± 2.0 min, the “time to 25% recovery of T1” value is reported as 28.6 ± 2.8 min and the “time to 90% recovery of T1” value is 44.0 ± 4.6 min. Moreover, in test [2] (5× ED90 vecuronium), the “time to TOF ratio 0.90” value is recorded as 49.0 ± 4.7 min. In test [2] (setting [3]), the block is 100.0 ± 0.0% and the onset time is recorded as 1.0 ± 0.1 min.

The values are drawn from patent US20050153932A1, “Controlled muscle relaxation” (priority 2003, published 2005).
